Source: ChEMBL document CHEMBL4477213, “Discovery and Optimization of Quinazolinone-pyrrolopyrrolones as Potent and Orally Bioavailable Pan-Pim Kinase Inhibitors” (J Med Chem, 2016)
In brackets after ≈: the same amount, converted by molar mass.

Tests used:
[1] = system: Mus musculus; test: In vivo inhibition of pan Pim in SCID-bg mouse xenografted with human KMS-12-BM cells assessed as phosphorylation of BAD peptide at Serine 112 residue at 50 mg/kg, po qd measured at 24 hrs post dose relative to control; format: functional; design: scale not given: the % may be the effect or the level left
[2] = Oral bioavailability in dog; format: ADME, organism-based, Canis lupus familiaris; conditions: in vivo
[3] = system: Mus musculus; test: In vivo inhibition of pan Pim in SCID-bg mouse xenografted with human KMS-12-BM cells assessed as phosphorylation of BAD peptide at Serine 112 residue at 25 mg/kg, po qd measured at 12 hrs post dose relative to control; format: functional; design: scale not given: the % may be the effect or the level left
[4] = system: Mus musculus; test: In vivo inhibition of pan Pim in SCID-bg mouse xenografted with human KMS-12-BM cells assessed as phosphorylation of BAD peptide at Serine 112 residue at 25 mg/kg, po qd measured at 8 hrs post dose relative to control; format: functional; design: scale not given: the % may be the effect or the level left
[5] = system: Mus musculus; test: In vivo inhibition of pan Pim in SCID-bg mouse xenografted with human KMS-12-BM cells assessed as phosphorylation of BAD peptide at Serine 112 residue at 10 mg/kg, po qd measured at 24 hrs post dose relative to control; format: functional; design: scale not given: the % may be the effect or the level left
[6] = biological target: T1, Mitogen-activated protein kinase kinase kinase 19 (Homo sapiens) (UniProt Q56UN5); test: Inhibition of human YSK4 (1019 to 1328 residues) expressed in mammalian system assessed as remaining enzyme activity at 1 uM by KINOMEScan assay relative to control
T1 sequence (whole entry): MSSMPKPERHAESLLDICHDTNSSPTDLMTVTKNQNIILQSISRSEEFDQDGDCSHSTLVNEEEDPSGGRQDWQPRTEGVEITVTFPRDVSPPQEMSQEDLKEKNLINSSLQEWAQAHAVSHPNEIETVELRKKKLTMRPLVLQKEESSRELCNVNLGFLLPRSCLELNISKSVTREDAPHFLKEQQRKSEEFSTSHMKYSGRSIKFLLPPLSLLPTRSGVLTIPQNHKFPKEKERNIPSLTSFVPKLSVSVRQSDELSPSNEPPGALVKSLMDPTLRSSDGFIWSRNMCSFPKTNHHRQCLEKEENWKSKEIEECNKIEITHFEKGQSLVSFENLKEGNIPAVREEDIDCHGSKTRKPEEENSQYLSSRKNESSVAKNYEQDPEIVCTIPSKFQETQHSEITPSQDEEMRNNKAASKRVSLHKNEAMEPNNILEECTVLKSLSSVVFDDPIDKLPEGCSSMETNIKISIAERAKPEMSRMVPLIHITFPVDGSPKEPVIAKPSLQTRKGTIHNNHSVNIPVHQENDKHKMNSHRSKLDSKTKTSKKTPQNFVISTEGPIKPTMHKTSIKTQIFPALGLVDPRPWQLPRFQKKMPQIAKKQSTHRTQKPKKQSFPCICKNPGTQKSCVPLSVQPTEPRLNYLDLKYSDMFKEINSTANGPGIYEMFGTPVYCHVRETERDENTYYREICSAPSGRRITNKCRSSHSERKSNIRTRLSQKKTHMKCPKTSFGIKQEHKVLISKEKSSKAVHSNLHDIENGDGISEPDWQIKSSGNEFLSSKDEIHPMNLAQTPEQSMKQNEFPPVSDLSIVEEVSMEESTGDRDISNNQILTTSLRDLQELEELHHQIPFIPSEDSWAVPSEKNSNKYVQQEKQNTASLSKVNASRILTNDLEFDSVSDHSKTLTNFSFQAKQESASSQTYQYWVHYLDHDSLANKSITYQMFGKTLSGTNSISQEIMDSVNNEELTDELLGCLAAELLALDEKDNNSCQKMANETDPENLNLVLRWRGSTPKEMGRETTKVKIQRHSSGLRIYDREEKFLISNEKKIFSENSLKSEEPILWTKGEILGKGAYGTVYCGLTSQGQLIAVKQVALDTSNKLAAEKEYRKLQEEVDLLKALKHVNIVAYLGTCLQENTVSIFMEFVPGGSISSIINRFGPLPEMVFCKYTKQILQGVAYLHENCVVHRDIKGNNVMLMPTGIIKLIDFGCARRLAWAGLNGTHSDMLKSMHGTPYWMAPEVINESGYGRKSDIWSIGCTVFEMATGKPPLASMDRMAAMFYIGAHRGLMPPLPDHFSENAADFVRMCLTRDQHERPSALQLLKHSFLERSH

[7] = system: KMS-12-BM; test: Antitumor activity against human KMS-12-BM cells xenografted in SCID-bg mouse assessed as tumor growth inhibition at 100 mg/kg, po qd measured twice per week; format: functional; conditions: read-out: TGI
[8] = system: Mus musculus; test: In vivo inhibition of pan Pim in SCID-bg mouse xenografted with human KMS-12-BM cells assessed as phosphorylation of BAD peptide at Serine 112 residue at 50 mg/kg, po qd measured at 12 hrs post dose relative to control; format: functional; design: scale not given: the % may be the effect or the level left
[9] = system: Mus musculus; test: In vivo inhibition of pan Pim in SCID-bg mouse xenografted with human KMS-12-BM cells assessed as phosphorylation of BAD peptide at Serine 112 residue at 10 mg/kg, po qd measured at 1 hr post dose relative to control; format: functional; design: scale not given: the % may be the effect or the level left
[10] = biological target: T2, Mitogen-activated protein kinase 12 (Homo sapiens) (UniProt P53778); test: Inhibition of full length human p38-gamma expressed in bacterial system assessed as remaining enzyme activity at 1 uM by KINOMEScan assay relative to control
T2 sequence (whole entry): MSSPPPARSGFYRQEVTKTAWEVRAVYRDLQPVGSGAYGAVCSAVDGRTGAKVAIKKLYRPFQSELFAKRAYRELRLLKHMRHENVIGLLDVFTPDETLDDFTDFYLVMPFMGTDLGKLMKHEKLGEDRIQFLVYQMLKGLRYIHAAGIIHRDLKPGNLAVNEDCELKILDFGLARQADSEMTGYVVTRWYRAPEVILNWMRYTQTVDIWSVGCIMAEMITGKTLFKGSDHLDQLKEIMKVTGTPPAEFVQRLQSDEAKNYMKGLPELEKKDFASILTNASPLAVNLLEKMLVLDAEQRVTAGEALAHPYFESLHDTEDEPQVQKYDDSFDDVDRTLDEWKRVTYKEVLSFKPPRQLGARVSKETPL

[11] = system: KMS-12-BM; test: Antitumor activity against human KMS-12-BM cells xenografted in po dosed SCID-bg mouse assessed as tumor growth inhibition administered once daily measured twice per week; format: functional, organism-based
[12] = biological target: Casein kinase II subunit alpha (Homo sapiens) (UniProt P68400); test: Inhibition of full length human CSNK2A1 expressed in mammalian system assessed as remaining enzyme activity at 1 uM by KINOMEScan assay relative to control
[13] = system: Mus musculus; test: In vivo inhibition of pan Pim in SCID-bg mouse xenografted with human KMS-12-BM cells assessed as phosphorylation of BAD peptide at Serine 112 residue at 50 mg/kg, po qd measured at 1 hr post dose relative to control; format: functional; design: scale not given: the % may be the effect or the level left
[14] = Aqueous solubility of the compound in FaSIF at pH 6.8 after 1 hr by LC/MS analysis

Casein kinase II subunit alpha (Homo sapiens), sequence (P68400 whole entry, looked up): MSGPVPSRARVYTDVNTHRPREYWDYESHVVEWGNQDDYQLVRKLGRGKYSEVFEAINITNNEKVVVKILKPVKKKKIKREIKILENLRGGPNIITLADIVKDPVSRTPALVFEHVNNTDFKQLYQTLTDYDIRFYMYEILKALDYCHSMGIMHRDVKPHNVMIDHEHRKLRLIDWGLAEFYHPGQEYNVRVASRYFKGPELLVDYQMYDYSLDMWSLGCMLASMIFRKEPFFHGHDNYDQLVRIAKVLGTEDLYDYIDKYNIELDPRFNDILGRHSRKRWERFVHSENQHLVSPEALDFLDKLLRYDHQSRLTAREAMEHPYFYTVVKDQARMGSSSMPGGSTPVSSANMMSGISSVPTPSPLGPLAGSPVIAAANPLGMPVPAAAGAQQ

With C[C@H]1NC(=O)c2cc(-c3cccc4c(=O)n(C)c(NC(C)(C)C)nc34)[nH]c21 the Activity [1] was 10%, the bioavailability [2] was 44% and the Activity [3] was 37%. For the same compound, the Activity [4] was 60%, the Activity [5] was 0% and the Activity [6] was 0.4%. The inhibition in vivo at 100 mg/kg [7] was 95%, the Activity [8] was 65% and the Activity [9] was 52%. For the same compound, the Activity [10] was 0.9%, the TGI [11] was “Dose-dependent effect” and the Activity [12] was 3.5%. It also gave an Activity [13] of 61% and a solubility at 1 h [14] of 104 µM (≈ 38 µg/mL).
